Assay results as given in patent US20250339567A1, “COMPOUNDS WITH IMPROVED PHARMACOKINETICS FOR IMAGING AND THERAPY OF CANCER” (priority 2019, published 2025).
“Also recorded” adds a separate entry of the source. Where two headings read alike, the source gives them in different places. Starred links: 1 amine or outer side, 2 acyl side, 3 side chain; linkers in the order of their positions; H or OH if unused. Non-standard residues stand in square brackets, D forms with d. Residues, ends and D or L forms follow the SMILES beside them. *: point of attachment. DOTA = O=C(O)CN1CCN(CC(=O)O)CCN(CC(=O)*)CCN(CC(=O)O)CC1; Sta = CC(C)C[C@H](N)[C@@H](O)CC(=O)O; Bta = N[C@@H](Cc1csc2ccccc12)C(=O)O; X1 = O=C(CN1CCC(N[*:1])CC1)[*:2]

Key:
[1] = n-Octanol-PBS distribution coefficient, log D7.4; format: physicochemical; conditions: n-octanol/PBS pH 7.4; for log D7.4 ± SD (n = 8): 177Lu-labeled ligand
Experimental: Approximately 1 MBq of the labeled tracer was dissolved in 1 mL of a 1:1 mixture (v/v) of phosphate buffered saline (PBS, pH=7.4) and n-octanol in an Eppendorf tube. After vigorous mixing of the suspension for 3 min at room temperature, the vial was centrifuged at 9000 rpm for 5 min (Biofuge 15, Heraus Sepatech, Osterode, Germany) and 200 μL aliquots of both layers were measured in a γ-counter. The experiment was repeated at least four times.

[2] = Plasma studies: metabolic stability in vitro in human plasma (radio RP-HPLC); format: in vitro ADME
Summary of the method: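 Radiotracer incubated in human or murine plasma at 37° C. immediately after labeling, for 72±2 h or 6±0.5 h. Proteins precipitated with ice-cold EtOH and MeCN and centrifuged. Supernatant analysed by radio RP-HPLC.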

PC-3 cells = test: Internalization into PC-3 cells; format: cell-based; conditions: c = 1 nM, 1 h, 37° C., corrected for non-specific binding (10^-3 M [natLu]RM2)
Experimental: For internalization studies, PC-3 cells are harvested 24±2 h before the experiment and seeded in 24-well plates (1.5×10^5 cells/well, 1 mL). Subsequent to the removal of the culture medium, the cells are washed once with 500 μL DMEM/F-12 (5% BSA) and left to equilibrate at 37° C. for at least 15 min in 200 μL DMEM/F-12 (5% BSA). […] Next, 25 μL of the ^125I/^177Lu-labeled GRPR ligand (10 nm) is added and the cells are incubated at 37° C. for 60 min.
The experiment is terminated by placing the 24-well plate on ice for 1 min and consecutive removal of the medium. Each well is rinsed with 300 μL ice-cold PBS and the fractions from these first two steps are combined, representing the amount of free radiolabeled reference. Removal of surface bound activity is accomplished by incubation of the cells with 300 μL of ice-cold Acid Wash solution (0.02 M NaOAc, pH=5.0) for 10 min at room temperature and rinsed again with 300 μL of ice-cold PBS. The internalized activity is determined by incubation of the cells in […] NaOH (1 M) and the combination with the fraction of a subsequent washing step with 300 μL NaOH (1 M).
Each experiment (control and blockade) is performed sixfold. Free, surface bound and internalized activity is quantified in a γ-counter. Data is corrected for non-specific internalization.

GRPR = molecular target: T1, GRPR (Homo sapiens, UniProt P30550); test: Determination of GRPR affinity (IC50), competition with [D-3-[125I]I-Tyr6]MJ9 on PC-3 cells; format: binding
T1 construct: endogenous in cells; host or cells: PC-3 cells
T1 sequence (P30550 whole entry): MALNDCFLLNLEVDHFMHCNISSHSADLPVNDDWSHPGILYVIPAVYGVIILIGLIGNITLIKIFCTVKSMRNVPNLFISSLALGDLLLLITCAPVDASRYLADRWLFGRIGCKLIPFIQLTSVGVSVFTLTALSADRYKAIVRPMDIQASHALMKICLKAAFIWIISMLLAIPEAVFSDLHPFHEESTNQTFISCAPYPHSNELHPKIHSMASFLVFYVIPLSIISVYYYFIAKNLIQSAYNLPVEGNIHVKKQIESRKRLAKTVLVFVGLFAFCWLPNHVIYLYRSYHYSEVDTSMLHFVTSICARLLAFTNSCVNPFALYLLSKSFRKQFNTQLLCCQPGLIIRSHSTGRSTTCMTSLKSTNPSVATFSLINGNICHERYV
Experimental: The reference ligand for IC50 studies ([D-3-[^125I]I-Tyr^6]MJ9) is prepared according to a previously published procedure. Briefly, 0.2 mg of [D-Tyr^6]MJ9 are dissolved in 20 μL Tracepur water and 280 μL TRIS buffer (25 mm TRIS HCl, 0.4 M NaCl, pH=7.9). After addition of the solution to a vial containing 150 μg Iodo-Gen® (1,3,4,6-Tetrachloro-3α,6α-diphenylglycouril, surface-bound), 5.0 μL (16 MBq) [^125I]Nal(74 TBq/mmol, 3.1 GBq/mL, 40 mM NaOH, Hartmann Analytic, Braunschweig, Germany) are added.
The GRPR-positive PC-3 cells are cultured in Dublecco modified Eagle medium/Nutrition Mixture F-12 with Glutamax-I (1:1) (Invitrigon), supplemented with 10% fetal calf serum and maintained at 37° C. in a humidified 5% CO2 atmosphere.
After removal of the culture medium, the cells are washed once with 500 μL of HBSS (Hank's balanced salt solution, Biochrom, Berlin, Germany, with addition of 1% bovine serum albumin (BSA)) and left in 200 μL HBSS (1% BSA) for 9 min at room temperature for equilibration. Next, 25 μL per well of solutions, containing either HBSS (1% BSA) as control or the respective ligand in increasing concentration (10^−10 M-10^−4 M in HBSS), are added with subsequent addition of 25 μL of [D-3-[^125I]I-Tyr^6]MJ9 (2.0 nM) in HBSS (1% BSA).
All experiments are performed in triplicate for each concentration. After 2 h incubation at room temperature, the experiment is terminated by removal of the medium and consecutive rinsing with 300 μL of HBSS. The media of both steps are combined in one fraction and represent the amount of free radiolabeled reference. Afterwards, the cells are lysed with 300 μL of 1 M NaOH for at least 15 min and united with the 300 μL NaOH of the following washing step. Quantification of bound and free radiolabeled reference is accomplished in a γ-counter.
IC50 determination for each ligand was repeated twice.

[3] = system: PC-3 tumor-bearing CB17-SCID mice; test: Biodistribution in PC-3 tumor-bearing CB17-SCID mice; format: in vivo
Experimental: All animal experiments were conducted in accordance with general animal welfare regulations in Germany (German animal protection act, as amended on 18 May 2018, Art. 141 G v. 29.3.2017 | 626, approval no. ROB-55.2-2532.Vet_02-18-109) and the institutional guidelines for the care and use of animals. To establish tumor xenografts, PC-3 cells (5×10^6 cells per 200 μL) were suspended in a 1:1 mixture (v/v) of Dulbecco's modified eagle's medium/Ham's F-12 (DMEM/F-12) with Glutamax-I (1:1) and Cultrex® Basement Membrane Matrix Type 3 (Trevigen Inc., Gaithersburg, MD, USA) and inoculated subcutaneously onto the right shoulder of 6-10 weeks old female CB17-SCID mice (Charles River Laboratories International Inc., Sulzfeld, Germany). Mice were used for experiments when tumor volume was 125-500 mm^3 (2-3 weeks after inoculation).
Approximately 1-5 MBq ([…]) of the radiolabeled GRPR antagonists were injected into the tail vein of PC-3 tumor-bearing mice and sacrificed at 1, 4 or 24 h p.i. (n=4). Selected organs were removed, weighted and measured in a γ-counter (Perkin Elmer, Waltham, MA, USA).

[4] = Plasma studies: metabolic stability in vitro in murine plasma (radio RP-HPLC); format: in vitro ADME; conditions: 37° C.
Experimental: Metabolic stability in vitro was determined applying a procedure published by Linder et al. that was slightly modified. Immediately after labeling, human (200 μL) or murine (100 μL) plasma was added and the mixture was incubated at 37° C. for 72±2 h (or 6±0.5 h). Proteins were precipitated by treatment with ice-cold EtOH (150 μL [human], 100 μL [murine]) and ice-cold MeCN (450 μL [human], 300 μL [murine]), followed by centrifugation for 20 min at 13000 rpm. The supernatants were decanted and further analyzed using radio RP-HPLC.
Therefore, only 100 μL of murine plasma was added to the tracer solution (final volume of 200 μL) immediately after labeling was finished. According to Linder et al. (Bioconjugate Chem. 20, 1171-1178 (2009)), metabolism is more rapid in murine than in human plasma for which reason the experiment was terminated after incubation at 37° C. for 6±0.5 h (FIGS. 5 and 6). Nevertheless, due to a smaller volume the murine mixture was additionally examined after incubation at 37° C. for 72±2 h (FIGS. 7 and 8).

[5] = IC50 [nM] ± SD (n = 3), ^177Lu-labeled, Table 1C, GRPR affinity
[6] = IC50 ± SD (n = 3), Table 3, [D-3-[125I]I-Tyr6]MJ9 (c = 0.2 nM), 2 h, r.t., HBSS + 1% BSA
[7] = human plasma, 37° C., 72±2 h, FIGS. 1-4

Row | Structure (SMILES) | log D7.4 ± SD (n = 8) [1] | Amount of intact tracer after incubation in human plasma for 72 ± 2 h (n = 2) [2] | metabolite, first-eluting peak in chromatogram [2] | metabolite, second peak in chromatogram [2] | remaining intact tracer in chromatogram ([2]; human, plasma, 2 h) | IC50 (GRPR; [5]) | IC50 (GRPR; [6]) | log D7.4 (n = 6), ^99mTc-labeled [1] | Specific internalization (mean ± SD, n = 6) (PC-3 cells) | other results
1 | CC(C)C[C@H](NC(=O)C[C@H](O)[C@H](CC(C)C)NC(=O)[C@H](Cc1c[nH]cn1)NC(=O)CNC(=O)[C@@H](NC(=O)[C@H](C)NC(=O)[C@H](Cc1csc2ccccc12)NC(=O)[C@H](CCC(N)=O)NC(=O)[C@@H](Cc1ccccc1)NC(=O)CN1CCC(NC(=O)CN2CCN(CC(=O)O)CCN(CC(=O)O)CCN(CC(=O)O)CC2)CC1)C(C)C)C(N)=O [DOTA-[Bta^8]MJ9] ({DOTA}-[X1][dF]Q[Bta]AVGH[Sta]L-NH2) | −1.81 ± 0.02 | 18.3 ± 2.3 | 79% | 8% | 12% | 4.6 ± 0.2 nM | 4.63 ± 0.23 nM | – | 2.26 ± 0.18 % of the used activity | –
2 | CC(C)C[C@H](NC(=O)C[C@H](O)[C@H](CC(C)C)NC(=O)[C@H](Cc1c[nH]cn1)NC(=O)CNC(=O)[C@@H](NC(=O)[C@H](C)NC(=O)[C@H](Cc1c[nH]c2ccccc12)NC(=O)[C@H](CCO)NC(=O)[C@@H](Cc1ccccc1)NC(=O)CN1CCC(NC(=O)CN2CCN(CC(=O)O)CCN(CC(=O)O)CCN(CC(=O)O)CC2)CC1)C(C)C)C(N)=O [DOTA-[Hse^7]MJ9] | −2.25 ± 0.06 | 40.1 ± 1.4 | 30% | 8% | 56% | 19.7 ± 1.6 nM | – | – | 1.40 ± 0.16 % of the used activity | –
3 | CC(C)C[C@H](NC(=O)C[C@H](O)[C@H](CC(C)C)NC(=O)[C@H](Cc1c[nH]cn1)NC(=O)CNC(=O)[C@@H](NC(=O)[C@H](C)NC(=O)[C@H](Cc1c[nH]c2ccccc12)NC(=O)[C@H](CCO)NC(=O)[C@@H](Cc1ccccc1)NC(=O)CN1CCC(NC(=O)C(CNCCN)CNCCN)CC1)C(C)C)C(N)=O [N4-[Hse^7]MJ9] | – | – | – | – | – | – | – | −1.26 ± 0.02 | – | tumor-to-background ratios ([3]; mouse, in vivo): highest; IC50 (GRPR; IC50 [nM] ± SD (n = 3), Table 5, non-labeled N4 ligands, [D-3-[125I]I-Tyr6]MJ9 (c = 0.2 nM), 2 h, r.t.): 6.97 ± 1.84 nM
4 | CC(C)C[C@H](NC(=O)C[C@H](O)[C@H](CC(C)C)NC(=O)[C@H](Cc1c[nH]cn1)NC(=O)CNC(=O)[C@@H](NC(=O)[C@H](C)NC(=O)[C@H](Cc1c[nH]c2ccccc12)NC(=O)[C@H](CCC(N)=O)NC(=O)[C@@H](Cc1ccccc1)NC(=O)CN1CCC(NC(=O)CN2CCN(CC(=O)O)CCN(CC(=O)O)CCN(CC(=O)O)CC2)CC1)C(C)C)C(N)=O [RM2, DOTA-Pip-D-Phe-Gln-Trp-Ala-Val-Gly-His-Sta-Leu-NH2] | – | – | – | – | – | – | – | – | – | metabolite, first-eluting peak in chromatogram ([4]; 6±0.5 h): 2%; metabolite, second peak in chromatogram ([4]; 6±0.5 h): 2%; metabolite, third peak in chromatogram ([4]; 6±0.5 h): 4%; remaining intact tracer in chromatogram ([4]; 6±0.5 h, FIGS. 5-6): 92%; remaining intact tracer in chromatogram ([4]; 72±2 h, FIGS. 7-8): 67%; Amount of intact tracer after incubation in human plasma for 72 ± 2 h (n = 2) ([2]; Table 1C, 177Lu-labeled, 37° C., 72 ± 2 h, in % (unit assumed)): 33.5 ± 2.7; amount of intact tracer (in vitro stability), mean ± SD ([2]; human plasma, 37° C., 72±2 h): 33.5±2.7%; metabolite, first-eluting peak in chromatogram [2, 7]: 54%; metabolite, second peak in chromatogram [2, 7]: 9%; remaining intact tracer in chromatogram ([2]; human plasma, 37° C., 72±2 h, single chromatogram (FIGS. 1-4)): 36%; tumor retention ([3]; 177Lu-labeled, 24 h p.i., 100 pmol, FIGS. 11, 18, listed as [^177Lu]RM2): high amounts; also recorded: higher tumor retention than the other derivatives of this series

The next lines start with results.

Row | log D7.4 ± SD (n = 8) [1] | Amount of intact tracer after incubation in human plasma for 72 ± 2 h (n = 2) [2] | metabolite, first-eluting peak in chromatogram [2] | metabolite, second peak in chromatogram [2] | remaining intact tracer in chromatogram ([2]; human, plasma, 2 h) | IC50 (GRPR; [5]) | IC50 (GRPR; [6]) | log D7.4 (n = 6), ^99mTc-labeled [1] | Structure (SMILES) | Specific internalization (mean ± SD, n = 6) (PC-3 cells) | other results
5 | – | – | – | – | – | – | – | −1.29 ± 0.08 | CC(C)C[C@H](NC(=O)C[C@H](O)[C@H](CC(C)C)NC(=O)[C@H](Cc1c[nH]cn1)NC(=O)CNC(=O)[C@@H](NC(=O)[C@H](C)NC(=O)[C@](C)(Cc1c[nH]c2ccccc12)NC(=O)[C@H](CCC(N)=O)NC(=O)[C@@H](Cc1ccccc1)NC(=O)CN1CCC(NC(=O)C(CNCCN)CNCCN)CC1)C(C)C)C(N)=O [N4-[α-Me-Trp^8]MJ9] | – | tumor accumulation at 4 h p.i. compared to 1 h p.i. ([3]; mouse, in vivo): enhanced tumor accumulation compared to 1 h p.i.
6 | – | – | – | – | – | – | 1.33 ± 0.36 nM | – | CC(C)C[C@H](NC(=O)C[C@H](O)[C@H](CC(C)C)NC(=O)[C@H](Cc1c[nH]cn1)NC(=O)CNC(=O)[C@@H](NC(=O)[C@H](C)NC(=O)[C@H](Cc1c[nH]c2ccccc12)NC(=O)[C@H](CCC(N)=O)NC(=O)[C@@H](Cc1ccc(O)c(I)c1)NC(=O)CN1CCC(N)CC1)C(C)C)C(N)=O [[D-3-I-Tyr^6]MJ9, reference compound] | 3.57 ± 0.57 % of the used activity | IC50 ± SD (n = 3) (GRPR; Table 3, [D-3-[125I]I-Tyr6]MJ9 (c = 0.2 nM), 2 h, r.t., HBSS + 1% BSA): particularly high affinity
